Test results published in US10532038B2, “Beta-3 adrenoceptor agonists for the treatment of pulmonary hypertension” (FUNDACIÓN CENTRO NACIONAL DE INVESTIGACIONES …, priority 2012, dated 2020).

Assays:
[1] = system: animals with acute PH; experiment: Single dose in acute PH due to pulmonary embolism; assay type: in vivo, pigs; settings: 5 μg/Kg endovenous, 10 minutes after administration
From the text: In 10 2 month old healthy pigs (weighing ≈30 kg) anesthetized, intubated and ventilated with 40% FiO2, while continuously monitoring blood pressure, heart rate (HR), oxygen saturation as well as PAP and repeated measurements of cardiac output (CO) by means of thermodilution using a Swan-Ganz catheter, acute PH was generated by means of pulmonary embolization with a suspension of microspheres (Sephadex G50 coarse; Pharmacia Biotech; Freiburg, Germany) by femoral vein route. The dose necessary for causing an increase of mean PAP≥40 mmHg to remain stable for 10 minutes was administered. At that time the animals were randomized to receive specific β3 agonist BRL37344 (5 μg/Kg) or physiological saline (vehicle).
(§1) Cardiac output was quantified by the thermodilution technique.
(§2) A value of P<0.05 was considered significant.

[2] = system: post-capillary chronic PH model; experiment: Single dose in chronic post-capillary PH
From the text: The post-capillary PH model was generated by means of the non-restrictive surgical cerclage of the main pulmonary vein in 4 week old piglets (weighing about 10 kg). This vein drains the blood from both lower lung lobes, forming about 80% of the pulmonary mass. With analgesia and general anesthesia and under cardiac monitoring and orotraqueal intubation, the right external jugular vein and common carotid artery were located by means of surgical dissection. The Swan-Ganz catheter was introduced through the venous access to continuously monitor PAP, pulmonary capillary pressure and cardiac output. The arterial route also served to monitor systemic blood pressure during the surgical intervention. By means of right lateral thoracotomy through the fifth intercostal space, non-restrictive cerclage of the main pulmonary vein was performed by means of placing a 5 mm wide polyester band around the vessel fitting the at-rest diameter of the pulmonary venous confluence right before it enters the left atrium. […] It is therefore a progressive PH model (severity intensifies throughout follow-up). […] At the end of follow-up, the animals were euthanized and their hearts extracted for histological analysis.
(§3) The hemodynamic study was conducted by means of right heart catheterization strictly using the same methodology as in humans. Once PH was generated, the following parameters were quantified basally and after the administration of the β3 agonist, in duplicate: PAP, pulmonary capillary pressure and right atrial pressure. Cardiac output was quantified by the thermodilution technique. Five measurements were taken, and the mean of 3 measurements was considered after excluding the highest and lowest determinations. Left ventricular end-diastolic pressure was determined by means of placement of a pig-tail catheter inside the left ventricle through the femoral artery. Pulmonary vascular resistances were calculated as the difference between mean PAP and left ventricular end-diastolic pressure divided by the cardiac output and expressed in Wood units.
The effect of the drug was evaluated 10 minutes after administration in acute PH and 20 minutes after administration in chronic PH.
The continuous variables are expressed as mean±SD and qualitative variables are expressed as frequency (%). The comparison between the intervention groups with respect to changes in the variables, calculated as the difference between the post-treatment and pre-treatment value (both in acute PH and chronic PH), was performed by means of the Wilcoxon test. The evaluation of the effect of a single dose of β3 agonist on the hemodynamic parameters in chronic PH was performed by means of the Student's T test or Wilcoxon test for paired data, according to the distribution of the variables. A value of P<0.05 was considered significant.

[3] = system: pre-capillary chronic PH model; experiment: Single dose in chronic pre-capillary PH; assay type: in vivo, Large-White pigs, Sus scrofa
From the text: The pre-capillary PH model was generated by means of pulmonary arterial embolization with synthetic microspheres 300 microns in diameter (Sephadex G50 coarse; Pharmacia Biotech; Freiburg, Germany), a variant of a model previously described (Bernd W. Bottiger, MD; Johann Motsch, MD; Joachim Dorsam, MD; UlfMieck, MD; Andre Gries, MD, forg Weimann, MD; and Eike Martin, MD. Inhaled Nitric Oxide Selectively Decreases Pulmonary Artery Pressure and Pulmonary Vascular Resistance Following Acute Massive Pulmonary Microembolism in Piglets. CHEST1996; 110:1041-47).
The protocol was initiated in 3 month old Large-White pigs, Sus scrofa species (weighing ≈40 kg). After general anesthesia and analgesia and under cardiac monitoring and orotracheal intubation, the femoral vein and artery were cannulated by means of percutaneous puncture in the cardiac hemodynamics laboratory. Through the venous access, a Swan-Ganz catheter was placed in one of the main branches of the pulmonary artery (PA), which was connected to a monitor to continuously record PAP and to quantify pulmonary capillary pressure and cardiac output. The arterial route allowed continuously recording systemic blood pressure. Venous access served to administer the microspheres towards the pulmonary arterial circulation. A solution was prepared with 500 mg of microspheres in 200 ml of physiological saline and the amount necessary to reach mean sustained PAP>40 mmHg in about 20 minutes was administered. This method was repeated weekly (3-5 embolizations) until generating chronic PH (mean PAP>25 mmHg at rest). Two-month follow-up was conducted on the animals. […] The histopathological lesions observed in the lung reproduce those shown in arterial PH or chronic thromboembolic PH in humans: arterial intima proliferation with media hypertrophy and perivascular fibrosis, vascular occlusions, and complex lesions such as vascular aneurisms or plexiform lesions.
as §1, §2

[4] = system: animals with post-capillary chronic PH; experiment: Chronic endovenous treatment in post-capillary chronic PH (blind, randomized); settings: 10 μg/Kg/day for 14 days
From the text: The post-capillary PH model was generated by means of the non-restrictive surgical cerclage of the main pulmonary vein in 4 week old piglets (weighing about 10 kg). This vein drains the blood from both lower lung lobes, forming about 80% of the pulmonary mass. With analgesia and general anesthesia and under cardiac monitoring and orotraqueal intubation, the right external jugular vein and common carotid artery were located by means of surgical dissection. The Swan-Ganz catheter was introduced through the venous access to continuously monitor PAP, pulmonary capillary pressure and cardiac output. The arterial route also served to monitor systemic blood pressure during the surgical intervention. By means of right lateral thoracotomy through the fifth intercostal space, non-restrictive cerclage of the main pulmonary vein was performed by means of placing a 5 mm wide polyester band around the vessel fitting the at-rest diameter of the pulmonary venous confluence right before it enters the left atrium. […]
as §3, with “Five measurements were taken, and the mean of 3 measurements was considered after excluding the highest and lowest determinations.” left out
The continuous variables are expressed as mean±SD and qualitative variables are expressed as frequency (%). The comparison between the intervention groups with respect to changes in the variables, calculated as the difference between the post-treatment and pre-treatment value (both in acute PH and chronic PH), was performed by means of the Wilcoxon test. […]

[5] = system: animals with post-capillary chronic PH; experiment: Chronic oral treatment in post-capillary chronic PH (blind, randomized); assay type: in vivo, pigs; settings: 50 mg/12 hours orally for 14 days; intermediate analysis (N=4); control group showed an increase of PVRs
Experimental: as §1
To evaluate the chronic effect of treatment with Mirabegron, a 50 mg tablet was administered orally every 12 hours in all cases. The fixed dose for all the animals was based on doses used in humans for different pathologies (never PH because it has never been tested in this entity), resulting in no adverse effects. The dose used for treating neurogenic bladder is 25 to 50 mg/day, whereas in studies designed to evaluate the effect of this drug in heart failure (see “Beta 3 Agonist Treatment in Heart Failure (Beat-HF) NCT01876433”), the expected initial dose is 25 mg/12 hours, being titrated to a maximum of 150 mg/12 hours. The dose of 50 mg/12 hours intends to be an average dose that can be easily extrapolated to patients with whom an efficacy study could be conducted knowing that the side effect profile is favorable.
Another cohort of animals with post-capillary chronic PH were randomized into chronic therapy for 14 days with Mirabegron (Myrbetrig® 50 mg/12 hours) or placebo. Right heart catheterization was performed pre- and post-treatment.

[6] = 5 μg/Kg endovenous single dose, 20 minutes after administration

SMILES: C[C@H](Cc1ccc(OCC(=O)O)cc1)NC[C@H](O)c1cccc(Cl)c1 [BRL 37344, [4-[(2R)-2-[[(2R)-2-(3-clorophenyl)-2-hydroxyethyl]amino]propyl]phenoxy]acetic acid]
- variation of mean systemic blood pressure ([1]; placebo 1.0±7.4, p=0.31, not significant): −4.6±8.0
- change of CO (post- minus pre-treatment) ([1]; placebo −0.20±0.31, p=0.008): 0.62±0.53
- change of PVR (post- minus pre-treatment) ([1]; placebo −0.4±1.3, p=0.008): −6.5±2.4
- variation of HR ([1]; placebo −3.0±7.1, p=0.84, not significant): −4.4±14.1
- change of PAPm (post- minus pre-treatment) ([1]; placebo −3.8±4.2, p=0.008): −13.0±4.5
- increase of oxygen saturation [2, 6]: 3.2%
- increase of the cardiac output [2, 6]: 18%
- reduction of pulmonary vascular resistances [2, 6]: 36%
- reduction of systolic pulmonary pressure [2, 6]: 23%
- reduction of the mean PAP [2, 6]: 30%
- cardiac output after administration ([2]; 5 μg/Kg endovenous, 20 minutes, from 3.29±0.9 before, p=0.07): 3.90 ± 1.5 L/min
- pulmonary vascular resistances after administration ([2]; 5 μg/Kg endovenous, 20 minutes, from 10.0±4.3 before, p=0.002): 6.4±3.2 Wood units
- mean PAP after administration ([2]; 5 μg/Kg endovenous, 20 minutes, from 37.6±9.8 before, p<0.001): 28.8±9.8 mmHg
- systolic pulmonary pressure after administration ([2]; 5 μg/Kg endovenous, 20 minutes, from 50.6±15.5 before, p<0.001): 38.9±9.9 mmHg
- heart rate after administration ([2]; 5 μg/Kg endovenous, 20 minutes, from 83.8±21.1 before, p=0.20, no significant change): 87.8±16.8 bpm
- systemic blood pressure after administration ([2]; 5 μg/Kg endovenous, 20 minutes, from 85.7±13.9 before, p=0.11, no significant change): 79.9±6.9 mmHg
- oxygen saturation after administration ([2]; 5 μg/Kg endovenous, 20 minutes, from 90.88±2.64 before, p=0.001): 93.75±3.01%
- changes in heart rate [3, 6]: without significant changes
- changes in systemic blood pressure [3, 6]: without significant changes
- decrease of the mean PAP [3, 6]: 32%
- increase of oxygen saturation [3, 6]: 2%
- reduction of systolic PAP [3, 6]: 25%
- mean PAP after administration ([3]; 5 μg/Kg endovenous, 20 minutes, from 29.5±2.1 before): 20.0±5.7 mmHg
- systolic PAP after administration ([3]; 5 μg/Kg endovenous, 20 minutes, from 37.5±6.4 before): 28.0±8.5 mmHg
- change of pulmonary vascular resistances (PVRs) after 14 days ([4]; osmotic pump, jugular vein, placebo +1.3±1.2, p=0.042): −1.2±1.6 WU
- change in heart rate after 14 days ([4]; placebo 3.0±28.2, p=0.49, not significant): −8.2±15.1 bpm
- change in systemic mean blood pressure after 14 days ([4]; placebo 4.3±7.0, p=0.25, not significant): 2.3±6.9 mmHg

SMILES: Nc1nc(CC(=O)Nc2ccc(CCNC[C@H](O)c3ccccc3)cc2)cs1 [Mirabegron]
- change of PVRs after 14 days [5]: a reduction of PVRs was observed
